Results: US20250296959A1, “B7-H3 TARGETING PEPTIDES AND CONSTRUCTS THEREOF” (Mariana Oncology Inc., priority 2024, published 2025)
Starred links: 1 amine or outer side, 2 acyl side, 3 side chain; linkers in the order of their positions; H or OH if unused. Positions of bridges follow the written chain, without caps; N, C: chain ends. Non-standard residues stand in square brackets, D forms with d. Residues, ends and D or L forms follow the SMILES beside them. Groups on a side chain read outwards from the residue. *: point of attachment. Ala(1-CH2CO2H-4-piperidyl) = N[C@@H](CC1CCN(CC(=O)O)CC1)C(=O)O; Ala(piperidin-4-yl) = O=C([C@H](CC1CCN([*:3])CC1)N[*:1])[*:2]; DOTA = O=C(O)CN1CCN(CC(=O)O)CCN(CC(=O)*)CCN(CC(=O)O)CC1; Phe(4-COOH) = N[C@@H](Cc1ccc(C(=O)O)cc1)C(=O)O; Trp(5-F) = N[C@@H](Cc1c[nH]c2ccc(F)cc12)C(=O)O; X1 = C[C@@H](c1ccccc1)[C@H](N[*:1])C(=O)[*:2]; Ala(4-THP) = N[C@@H](CC1CCOCC1)C(=O)O; Val(3-OH) = CC(C)(O)[C@H](N)C(=O)O; Gly(cPr) = N[C@H](C(=O)O)C1CC1; Chg = N[C@H](C(=O)O)C1CCCCC1; PEG4 = NCCOCCOCCOCCOCCC(=O)O; Tle = CC(C)(C)[C@H](N)C(=O)O; hLeu = CC(C)CC[C@H](N)C(=O)O; αMeS = C[C@](N)(CO)C(=O)O; Nle = CCCC[C@H](N)C(=O)O

target: T1, human 4lg B7-H3 (Homo sapiens, UniProt Q5ZPR3); assay: Affinity determination by surface plasmon resonance (SPR) to 4Ig B7-H3; details: SPR KD—25° C., 4Ig B7-H3; 25° C. flow cell temperature
T1 sequence (Q5ZPR3 29-534): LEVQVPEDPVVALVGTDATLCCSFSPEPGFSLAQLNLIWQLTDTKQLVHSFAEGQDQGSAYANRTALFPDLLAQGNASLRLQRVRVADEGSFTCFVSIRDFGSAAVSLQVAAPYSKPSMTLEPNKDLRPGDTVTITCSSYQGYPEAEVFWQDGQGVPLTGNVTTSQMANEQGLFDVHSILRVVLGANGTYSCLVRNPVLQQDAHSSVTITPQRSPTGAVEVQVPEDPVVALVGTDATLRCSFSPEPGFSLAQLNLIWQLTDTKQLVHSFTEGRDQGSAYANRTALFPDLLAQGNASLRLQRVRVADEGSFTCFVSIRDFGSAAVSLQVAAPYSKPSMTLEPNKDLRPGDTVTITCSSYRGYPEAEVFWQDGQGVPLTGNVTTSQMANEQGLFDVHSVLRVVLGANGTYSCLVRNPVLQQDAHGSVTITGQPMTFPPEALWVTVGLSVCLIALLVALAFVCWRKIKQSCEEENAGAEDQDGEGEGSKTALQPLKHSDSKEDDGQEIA

Kd [nM]	Compound
1 to 10	CC(=O)N[C@@H](CCC(C)C)C(=O)N[C@@H](Cc1ccc(O)cc1)C(=O)N[C@H]1CSSC[C@@H](C(=O)N[C@@H](Cc2c[nH]c3ccccc23)C(=O)N[C@@H](Cc2ccccc2)C(=O)N[C@H](C(=O)N[C@H](CCCCNC(=O)CN2CCN(CC(=O)O)CCN(CC(=O)O)CCN(CC(=O)O)CC2)C(N)=O)[C@@H](C)O)NC(=O)[C@H](Cc2ccc(O)cc2)NC(=O)[C@H](C2CC2)NC(=O)[C@H](CC(=O)O)NC(=O)[C@H](Cc2ccc(O)cc2)NC(=O)[C@H](CCCCN)NC(=O)CNC(=O)[C@H](C(C)C)NC1=O [compound 123, Ac-hLeu-Y-C-V-G-K-Y-D-Cpg-Y-C-W-F-Thr-dLys(DOTA)-CONH2] (Ac-[hLeu]YCVGKYD[Gly(cPr)]YCWFT[dK](DOTA)-NH2; disulfide 3-11)
100 to 300	CCCC[C@H](NC(C)=O)C(=O)N[C@@H](Cc1ccc(O)cc1)C(=O)N[C@H]1CSSC[C@@H](C(=O)N[C@@H](Cc2c[nH]c3ccccc23)C(=O)N[C@@H](Cc2ccccc2)C(=O)N[C@H](C(=O)N[C@H](CCCCNC(=O)CN2CCN(CC(=O)O)CCN(CC(=O)O)CCN(CC(=O)O)CC2)C(N)=O)[C@@H](C)O)NC(=O)[C@H](Cc2ccc(O)cc2)NC(=O)[C@H](C(C)C)NC(=O)[C@H](CO)NC(=O)[C@H](Cc2ccc(O)cc2)NC(=O)[C@H](CCCCN)NC(=O)CNC(=O)[C@H](C(C)C)NC1=O [compound 81, Ac-Nle-Y-C-V-G-K-Y-S-V-Y-C-W-F-Thr-dLys(DOTA)-CONH2] (Ac-[Nle]YCVGKYSVYCWFT[dK](DOTA)-NH2; disulfide 3-11)
10 to 100	CC(=O)N[C@@H](CCC(C)C)C(=O)N[C@@H](Cc1ccc(O)cc1)C(=O)N[C@H]1CSSC[C@@H](C(=O)N[C@@H](Cc2c[nH]c3ccccc23)C(=O)N[C@@H](Cc2ccccc2)C(=O)N[C@H](C(N)=O)[C@@H](C)O)NC(=O)[C@H](Cc2ccc(O)cc2)NC(=O)[C@H](C(C)C)NC(=O)[C@H](CC(=O)O)NC(=O)[C@H](CCCCNC(=O)CN2CCN(CC(=O)O)CCN(CC(=O)O)CCN(CC(=O)O)CC2)NC(=O)[C@H](CCCCN)NC(=O)CNC(=O)[C@H](C(C)C)NC1=O [compound 144, Ac-hLeu-Y-C-V-G-K-Lys(DOTA)-D-V-Y-C-W-F-Thr-CONH2] (Ac-[hLeu]YCVGKK(DOTA)DVYCWFT-NH2; disulfide 3-11)
1 to 10	CCCC[C@H](NC(C)=O)C(=O)N[C@@H](Cc1ccc(O)cc1)C(=O)N[C@H]1CSSC[C@@H](C(=O)N[C@@H](Cc2c[nH]c3ccccc23)C(=O)N[C@@H](Cc2ccccc2)C(=O)N[C@H](C(=O)N[C@H](CCCCNC(=O)CN2CCN(CC(=O)O)CCN(CC(=O)O)CCN(CC(=O)O)CC2)C(N)=O)[C@@H](C)O)NC(=O)[C@H](Cc2ccc(O)cc2)NC(=O)[C@H](C2CCCCC2)NC(=O)[C@H](CC(=O)O)NC(=O)[C@H](Cc2ccc(O)cc2)NC(=O)[C@H](CCCCN)NC(=O)CNC(=O)[C@H](C(C)C)NC1=O [compound 55, Ac-Nle-Y-C-V-G-K-Y-D-ChG-Y-C-W-F-Thr-dLys(DOTA)-CONH2] (Ac-[Nle]YCVGKYD[Chg]YCWFT[dK](DOTA)-NH2; disulfide 3-11)
100 to 300	CC(=O)N[C@@H](CCC(C)C)C(=O)N[C@@H](Cc1ccc(O)cc1)C(=O)N[C@H]1CSSC[C@@H](C(=O)N[C@@H](Cc2c[nH]c3ccc(F)cc23)C(=O)N[C@@H](Cc2ccccc2)C(=O)N2CCC[C@H]2C(=O)O)NC(=O)[C@H](Cc2ccc(O)cc2)NC(=O)[C@H](C(C)C)NC(=O)[C@H](CC(=O)O)NC(=O)[C@H](Cc2ccc(C(=O)O)cc2)NC(=O)[C@H](CCCCNC(=O)CN2CCN(CC(=O)O)CCN(CC(=O)O)CCN(CC(=O)O)CC2)NC(=O)CNC(=O)[C@H](C(C)C)NC1=O [compound 290, Ac-hLeu-Y-C-V-G-Lys(DOTA)-4COOHPhe-D-V-Y-C-5FW-F-Pro-COOH] (Ac-[hLeu]YCVGK(DOTA)[Phe(4-COOH)]DVYC[Trp(5-F)]FP-OH; disulfide 3-11)
100 to 300	CSCC[C@H](NC(C)=O)C(=O)N[C@@H](Cc1ccc(O)cc1)C(=O)N[C@H]1CSSC[C@@H](C(=O)N[C@@H](Cc2c[nH]c3ccccc23)C(=O)N[C@@H](Cc2ccccc2)C(N)=O)NC(=O)[C@H](Cc2ccc(O)cc2)NC(=O)[C@H](C(C)C)NC(=O)[C@H](CC(=O)O)NC(=O)[C@H](Cc2ccc(O)cc2)NC(=O)[C@H](CCCCN)NC(=O)CNC(=O)[C@H](C(C)C)NC1=O [compound 1, Ac-M-Y-C-V-G-K-Y-D-V-Y-C-W-F-CONH2] (Ac-MYCVGKYDVYCWF-NH2; disulfide 3-11)
1 to 10	CC(=O)N[C@@H](CCC(C)C)C(=O)N[C@@H](Cc1ccc(O)cc1)C(=O)N[C@H]1CSSC[C@@H](C(=O)N[C@@H](Cc2c[nH]c3ccc(F)cc23)C(=O)N[C@@H](Cc2ccccc2)C(=O)N[C@@](C)(CO)C(=O)N[C@H](CCCCNC(=O)CN2CCN(CC(=O)O)CCN(CC(=O)O)CCN(CC(=O)O)CC2)C(N)=O)NC(=O)[C@H](Cc2ccc(O)cc2)NC(=O)[C@H](C(C)C)NC(=O)[C@H](CC(=O)O)NC(=O)[C@H](Cc2ccc(O)cc2)NC(=O)[C@H](CCCCN)NC(=O)CNC(=O)[C@H](C(C)C)NC1=O [compound 147, Ac-hLeu-Y-C-V-G-K-Y-D-V-Y-C-5FW-F-aMeSer-dLys(DOTA)-CONH2] (Ac-[hLeu]YCVGKYDVYC[Trp(5-F)]F[αMeS][dK](DOTA)-NH2; disulfide 3-11)

same assay, conditions: SPR KD—37° C., 4Ig B7-H3; 37° C. flow cell temperature

Kd [nM]	Compound
1 to 10	CC[C@H](C)[C@@H]1NC(=O)[C@@H](NC(=O)[C@H](Cc2ccc(O)cc2)NC(=O)[C@H](CCC(C)C)NC(C)=O)CSSC[C@@H](C(=O)N[C@@H](Cc2c[nH]c3ccc(F)cc23)C(=O)N[C@@H](Cc2ccccc2)C(=O)N[C@H](C(=O)O)C(C)(C)O)NC(=O)[C@H](Cc2ccc(O)cc2)NC(=O)[C@H](C(C)C)NC(=O)[C@H](CC(=O)O)NC(=O)[C@H](CC2CCNCC2)NC(=O)[C@H](CCCCNC(=O)CN2CCN(CC(=O)O)CCN(CC(=O)O)CCN(CC(=O)O)CC2)NC(=O)CNC1=O [compound 323, Ac-hLeu-Y-C-Ile-G-Lys(DOTA)-PipAla-D-V-Y-C-5FW-F-hydroxyVal-COOH] (Ac-[hLeu]YCIGK(DOTA)[Ala(piperidin-4-yl)]DVYC[Trp(5-F)]F[Val(3-OH)]-OH; disulfide 3-11)
1 to 10	CC(=O)N[C@@H](CCC(C)C)C(=O)N[C@@H](Cc1ccc(O)cc1)C(=O)N[C@H]1CSSC[C@@H](C(=O)N[C@@H](Cc2c[nH]c3ccc(F)cc23)C(=O)N[C@@H](Cc2ccccc2)C(=O)N2CCC[C@H]2C(=O)N[C@H](CCCCNC(=O)CN2CCN(CC(=O)O)CCN(CC(=O)O)CCN(CC(=O)O)CC2)C(=O)O)NC(=O)[C@H](Cc2ccc(O)cc2)NC(=O)[C@H](C(C)C)NC(=O)[C@H](CC(=O)O)NC(=O)[C@H](CC2CCOCC2)NC(=O)[C@H](CC2CCN(CC(=O)O)CC2)NC(=O)CNC(=O)[C@H](C(C)(C)C)NC1=O [compound 319, Ac-hLeu-Y-C-Tbg-G-[Pip(CH2CO2H)Ala]-ThpA-D-V-Y-C-5FW-F-Pro-dLys(DOTA)-COOH] (Ac-[hLeu]YC[Tle]G[Ala(1-CH2CO2H-4-piperidyl)][Ala(4-THP)]DVYC[Trp(5-F)]FP[dK](DOTA)-OH; disulfide 3-11)
< 1	CC(=O)NCCCC[C@@H]1NC(=O)CNC(=O)[C@H](C(C)(C)C)NC(=O)[C@@H](NC(=O)[C@H](Cc2ccc(O)cc2)NC(=O)[C@H](CCC(C)C)NC(C)=O)CSSC[C@@H](C(=O)N[C@@H](Cc2c[nH]c3ccc(F)cc23)C(=O)N[C@H](C(=O)N[C@H](C(=O)N[C@H](C)C(=O)O)C(C)(C)O)[C@@H](C)c2ccccc2)NC(=O)[C@H](Cc2ccc(O)cc2)NC(=O)[C@H](C(C)C)NC(=O)[C@H](CC(=O)O)NC(=O)[C@H](CC2CCN(C(=O)CCOCCOCCOCCOCCNC(=O)CN3CCN(CC(=O)O)CCN(CC(=O)O)CCN(CC(=O)O)CC3)CC2)NC1=O [compound 512, Ac-hLeu-Y-C-Tbg-G-Lys(Ac)-Pip(PEG4-DOTA)Ala-D-V-Y-C-5FW-[(2S, 3S)beta-Me-Phe]-hydroxyVal-dAla-COOH] (Ac-[hLeu]YC[Tle]GK(Ac)[Ala(piperidin-4-yl)]([PEG4-DOTA])DVYC[Trp(5-F)][X1][Val(3-OH)][dA]-OH; disulfide 3-11)
1 to 10	CC(=O)N[C@@H](CCC(C)C)C(=O)N[C@@H](Cc1ccc(O)cc1)C(=O)N[C@H]1CSSC[C@@H](C(=O)N[C@@H](Cc2c[nH]c3ccc(F)cc23)C(=O)N[C@@H](Cc2ccccc2)C(=O)N[C@H](C(=O)N[C@H](CCC(=O)O)C(N)=O)C(C)(C)O)NC(=O)[C@H](Cc2ccc(O)cc2)NC(=O)[C@H](C(C)C)NC(=O)[C@H](CC(=O)O)NC(=O)[C@H](CC2CCOCC2)NC(=O)[C@H](CC2CCN(C(=O)CCOCCOCCOCCOCCNC(=O)CN3CCN(CC(=O)O)CCN(CC(=O)O)CCN(CC(=O)O)CC3)CC2)NC(=O)CNC(=O)[C@H](C(C)(C)C)NC1=O [compound 409, Ac-hLeu-Y-C-Tbg-G-Pip(PEG4-DOTA)Ala-ThpA-D-V-Y-C-5FW-F-hydroxyVal-dGlu-CONH2] (Ac-[hLeu]YC[Tle]G[Ala(piperidin-4-yl)]([PEG4-DOTA])[Ala(4-THP)]DVYC[Trp(5-F)]F[Val(3-OH)][dE]-NH2; disulfide 3-11)
100 to 300	CSCC[C@H](NC(C)=O)C(=O)N[C@@H](Cc1ccc(O)cc1)C(=O)N[C@H]1CSSC[C@@H](C(=O)N[C@@H](Cc2c[nH]c3ccccc23)C(=O)N[C@@H](Cc2ccccc2)C(N)=O)NC(=O)[C@H](Cc2ccc(O)cc2)NC(=O)[C@H](C(C)C)NC(=O)[C@H](CC(=O)O)NC(=O)[C@H](Cc2ccc(O)cc2)NC(=O)[C@H](CCCCN)NC(=O)CNC(=O)[C@H](C(C)C)NC1=O [compound 1, Ac-M-Y-C-V-G-K-Y-D-V-Y-C-W-F-CONH2] (Ac-MYCVGKYDVYCWF-NH2; disulfide 3-11)
